Laboratory results reported in ChEMBL document CHEMBL1127270, “Enantioselective synthesis of PD144723: a potent stereospecific anticonvulsant” (Bioorg Med Chem Lett, 1994).

Experiments:
Rattus norvegicus [1] = organism: Rattus norvegicus; assay: In vitro percent inhibition of [3H]gabapentin binding at log molar concentration of -5.5
Rattus norvegicus [2] = organism: Rattus norvegicus; assay: In vitro percent inhibition of [3H]gabapentin binding at log molar concentration of -4.5
Rattus norvegicus [3] = organism: Rattus norvegicus; assay: In vitro percent inhibition of [3H]gabapentin binding at log molar concentration of -5
Rattus norvegicus [4] = organism: Rattus norvegicus; assay: In vitro percent inhibition of [3H]gabapentin binding at log molar concentration of -7.5
Rattus norvegicus [5] = organism: Rattus norvegicus; assay: In vitro percent inhibition of [3H]gabapentin binding at log molar concentration of -7
Mus musculus [6] = assay: Percent of mice protected in blocking maximal electroshock seizures test at a dose of 100 mg/kg, iv,; format: functional
Mus musculus [7] = organism: Mus musculus; assay: Effective dose for anticonvulsant activity (blocking maximal electroshock seizures) in male CF-1 strain mice was measured.; format: functional
[8] = In vitro inhibition of [3H]-gabapentin binding to partially purified rat neocortex synaptic plasma membranes; format: cell membranes, Membrane
Rattus norvegicus [9] = organism: Rattus norvegicus; assay: In vitro percent inhibition of [3H]gabapentin binding at log molar concentration of -8
Mus musculus [10] = assay: Percent of mice protected in blocking maximal electroshock seizures test at a dose of 500 mg/kg, iv,; format: functional
Rattus norvegicus [11] = organism: Rattus norvegicus; assay: In vitro percent inhibition of [3H]gabapentin binding at log molar concentration of -6.5
Rattus norvegicus [12] = organism: Rattus norvegicus; assay: In vitro percent inhibition of [3H]gabapentin binding at log molar concentration of -6
Rattus norvegicus [13] = organism: Rattus norvegicus; assay: In vitro percent inhibition of [3H]gabapentin binding at log molar concentration of -8.5
Rattus norvegicus [14] = organism: Rattus norvegicus; assay: In vitro percent inhibition of [3H]gabapentin binding at log molar concentration of -4
Mus musculus [15] = assay: Percent of mice protected in blocking maximal electroshock seizures test at a dose of 750 mg/kg, iv,; format: functional
Mus musculus [16] = assay: Percent of mice protected in blocking maximal electroshock seizures test at a dose of 150 mg/kg, iv,; format: functional
Mus musculus [17] = assay: Percent of mice protected in blocking maximal electroshock seizures test at a dose of 450 mg/kg, iv,; format: functional
Mus musculus [18] = assay: Percent of mice protected in blocking maximal electroshock seizures test at a dose of 50 mg/kg, iv,; format: functional
Mus musculus [19] = assay: Percent of mice protected in blocking maximal electroshock seizures test at a dose of 75 mg/kg, iv,; format: functional

Row | SMILES | inhibition (Rattus norvegicus [1]) [%] | inhibition (Rattus norvegicus [2]) [%] | inhibition (Rattus norvegicus [3]) [%] | inhibition (Rattus norvegicus [4]) [%] | inhibition (Rattus norvegicus [5]) [%] | Protection (Mus musculus [6]) [%] | ED50 (Mus musculus [7]) [mg/kg] | IC50 [8] [µM] | inhibition (Rattus norvegicus [9]) [%] | Protection (Mus musculus [10]) [%] | inhibition (Rattus norvegicus [11]) [%] | inhibition (Rattus norvegicus [12]) [%] | inhibition (Rattus norvegicus [13]) [%] | inhibition (Rattus norvegicus [14]) [%] | Protected (Mus musculus [15]) [%] | Protected (Mus musculus [16]) [%] | Protected (Mus musculus [17]) [%] | Protected (Mus musculus [18]) [%] | Protected (Mus musculus [19]) [%]
1 | CC(C)C[C@@H](CN)CC(=O)O | 80 | 90 | 80 | 10 | 8 | ~94 | > 300 | 0.62 | 0 | ~1 | 38 | 60 | – | – | – | – | – | – | –
2 | CC(C)CC(CN)CC(=O)O (racemic) | 92 | 98 | 94 | 30 | 50 | – | – | 0.083 | 12 | – | 74 | 90 | 10 | 100 | – | – | – | – | –
3 | NCC1(CC(=O)O)CCCCC1 [GABAPENTIN] | – | – | – | – | – | – | 87 | 0.08 | – | – | – | – | – | – | ~99 | ~75 | ~74 | ~1 | ~70
4 | CC(C)C[C@H](CN)CC(=O)O [PREGABALIN] | 94 | 100 | 98 | 50 | 75 | – | 20 | 0.037 | 25 | – | 85 | 90 | – | – | – | – | – | – | –
